These compounds were tested against T1, chimeric human H3 receptor (Homo sapiens, UniProt Q9Y5N1) (assay: Chimeric human H3 receptor screening GTP binding assay (inhibition of histamine-stimulated GTP-gamma35S binding, Example 8)). Details: 1 h; assay described in Example 8; symbol "!" in column headed Ki; read-out: Ki ("!": percent inhibition of agonist-induced GTP-gammaS binding to H3).
T1 construct: rat Galpha-i2 (Gnai2, rat); made in house; host or cells: Sf9 insect cells (baculovirus); P2 membranes
T1 sequence (Q9Y5N1 with tags, fused parts or gaps): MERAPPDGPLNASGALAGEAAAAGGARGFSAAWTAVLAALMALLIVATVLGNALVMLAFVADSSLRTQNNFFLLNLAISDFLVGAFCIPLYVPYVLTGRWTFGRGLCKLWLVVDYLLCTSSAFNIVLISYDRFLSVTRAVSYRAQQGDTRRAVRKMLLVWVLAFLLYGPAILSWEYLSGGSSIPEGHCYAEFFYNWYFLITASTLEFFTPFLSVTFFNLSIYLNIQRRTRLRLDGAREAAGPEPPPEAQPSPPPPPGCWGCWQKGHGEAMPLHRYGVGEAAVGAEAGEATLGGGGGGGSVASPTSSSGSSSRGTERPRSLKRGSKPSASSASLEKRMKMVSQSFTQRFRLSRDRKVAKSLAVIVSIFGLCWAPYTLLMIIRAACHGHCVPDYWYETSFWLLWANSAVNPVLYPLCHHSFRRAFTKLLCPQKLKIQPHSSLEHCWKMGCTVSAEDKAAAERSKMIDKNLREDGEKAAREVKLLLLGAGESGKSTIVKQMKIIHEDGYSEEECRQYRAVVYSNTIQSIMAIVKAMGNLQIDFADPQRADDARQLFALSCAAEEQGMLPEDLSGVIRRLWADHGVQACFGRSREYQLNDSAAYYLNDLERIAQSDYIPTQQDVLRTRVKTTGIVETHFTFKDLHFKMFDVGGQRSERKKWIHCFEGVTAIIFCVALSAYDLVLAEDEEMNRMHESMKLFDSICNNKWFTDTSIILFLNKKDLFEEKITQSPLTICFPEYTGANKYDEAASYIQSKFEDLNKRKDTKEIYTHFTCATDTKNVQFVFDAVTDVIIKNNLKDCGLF
Type: biochemical
Outline: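 Sf9 membranes co-expressing chimeric human H3 receptor and heterotrimeric G-protein (35 μg protein) incubated 60 min at room temperature with 4 μM compound, 1 μM histamine and 125 pM GTP-gamma35S in pH 7.4 buffer with 10 μM GDP. Filter-bound radioactivity, nonspecific (10 μM GTP-gammaS) subtracted, reported as % inhibition of histamine signal.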

Compound | inhibition at 4 µM [%]
Cc1ccc(C)c(/C=C/C(=O)N2CCc3cnc(N4CCN(C5CCC5)CC4)nc3CC2)c1 [Compound 577, 2-(4-cyclobutylpiperazin-1-yl)-7-[(2E)-3-(2,5-dimethylphenyl)prop-2-enoyl]-6,7,8,9-tetrahydro-5H-pyrimido[4,5-d]azepine] | ≥ 90
Cc1ccc(C(=O)N2CCc3cnc(N4CCN(C5CCC5)CC4)nc3CC2)c(C)c1 [Compound 407, 2-(4-cyclobutylpiperazin-1-yl)-7-(2,4-dimethylbenzoyl)-6,7,8,9-tetrahydro-5H-pyrimido[4,5-d]azepine] | ≥ 90
Cc1cccc(CC(=O)N2CCc3cnc(N4CCN(C5CCC5)CC4)nc3CC2)c1 [Compound 514, 2-(4-cyclobutylpiperazin-1-yl)-7-[(3-methylphenyl)acetyl]-6,7,8,9-tetrahydro-5H-pyrimido[4,5-d]azepine] | ≥ 90
O=C(c1cc(F)ccc1F)N1CCc2cnc(N3CCN(C4CCC4)CC3)nc2CC1 [Compound 391, 2-(4-cyclobutylpiperazin-1-yl)-7-(2,5-difluorobenzoyl)-6,7,8,9-tetrahydro-5H-pyrimido[4,5-d]azepine] | ≥ 90
COc1ccc(/C=C/C(=O)N2CCc3cnc(N4CCN(C5CCC5)CC4)nc3CC2)cc1 [Compound 558, 2-(4-cyclobutylpiperazin-1-yl)-7-[(2E)-3-(4-methoxyphenyl)prop-2-enoyl]-6,7,8,9-tetrahydro-5H-pyrimido[4,5-d]azepine] | ≥ 90
CCCCc1ccc(C(=O)N2CCc3cnc(N4CCN(C5CCC5)CC4)nc3CC2)nc1 [Compound 489, 7-[(5-butylpyridin-2-yl)carbonyl]-2-(4-cyclobutylpiperazin-1-yl)-6,7,8,9-tetrahydro-5H-pyrimido[4,5-d]azepine] | ≥ 90
Cc1ccc(/C=C/C(=O)N2CCc3cnc(N4CCN(C5CCC5)CC4)nc3CC2)cc1 [Compound 557, 2-(4-cyclobutylpiperazin-1-yl)-7-[(2E)-3-(4-methylphenyl)prop-2-enoyl]-6,7,8,9-tetrahydro-5H-pyrimido[4,5-d]azepine] | ≥ 90

Now from value to compound:

inhibition at 4 µM [%] | Compound
≥ 90 | O=C(c1ccc(Oc2cc(Cl)cc(Cl)c2)o1)N1CCc2cnc(N3CCN(C4CCC4)CC3)nc2CC1 [Compound 472, 2-(4-cyclobutylpiperazin-1-yl)-7-[5-(3,5-dichlorophenoxy)-2-furoyl]-6,7,8,9-tetrahydro-5H-pyrimido[4,5-d]azepine]
≥ 90 | Nc1ccc(C(=O)N2CCc3cnc(N4CCN(C5CCC5)CC4)nc3CC2)cc1 [Compound 533, 4-{[2-(4-cyclobutylpiperazin-1-yl)-5,6,8,9-tetrahydro-7H-pyrimido[4,5-d]azepin-7-yl]carbonyl}aniline]
≥ 90 | CC(C)Oc1ncccc1C(=O)N1CCc2cnc(N3CCN(C4CCC4)CC3)nc2CC1 [Compound 546, 2-(4-cyclobutylpiperazin-1-yl)-7-[(2-isopropoxypyridin-3-yl)carbonyl]-6,7,8,9-tetrahydro-5H-pyrimido[4,5-d]azepine]

Same assay, conditions: 1 h; assay of Example 8; symbol "!" in column headed Ki; read-out: percent inhibition of agonist-induced GTP-gammaS binding to H3

Compound | inhibition at 4 µM [%]
CCn1cncc1CN1CCc2cnc(N3CCN(C4CCC4)CC3)nc2CC1 [Compound 262, 2-(4-cyclobutylpiperazin-1-yl)-7-[(1-ethyl-1H-imidazol-5-yl)methyl]-6,7,8,9-tetrahydro-5H-pyrimido[4,5-d]azepine] | ≥ 90
c1ccc2ncc(CN3CCc4cnc(N5CCN(C6CCC6)CC5)nc4CC3)cc2c1 [Compound 237, 2-(4-cyclobutylpiperazin-1-yl)-7-(quinolin-3-ylmethyl)-6,7,8,9-tetrahydro-5H-pyrimido[4,5-d]azepine] | ≥ 90
O=C(Cc1ccc(Cl)cc1Cl)N1CCc2cnc(N3CCN(C4CCC4)CC3)nc2CC1 [Compound 296, 2-(4-cyclobutylpiperazin-1-yl)-7-[(2,4-dichlorophenyl)acetyl]-6,7,8,9-tetrahydro-5H-pyrimido[4,5-d]azepine] | ≥ 90
COc1ccc(C(=O)N2CCc3cnc(N4CCN(C5CCC5)CC4)nc3CC2)cc1OC [Compound 378, 2-(4-cyclobutylpiperazin-1-yl)-7-(3,4-dimethoxybenzoyl)-6,7,8,9-tetrahydro-5H-pyrimido[4,5-d]azepine] | ≥ 90
O=C(COc1ccc(Cl)c(Cl)c1)N1CCc2cnc(N3CCN(C4CCC4)CC3)nc2CC1 [Compound 332, 2-(4-cyclobutylpiperazin-1-yl)-7-[(3,4-dichlorophenoxy)acetyl]-6,7,8,9-tetrahydro-5H-pyrimido[4,5-d]azepine] | ≥ 90
CCC(C(=O)N1CCc2cnc(N3CCN(C4CCC4)CC3)nc2CC1)c1ccc(OC)cc1 (stereo not shown) [Compound 352, 2-(4-cyclobutylpiperazin-1-yl)-7-[2-(4-methoxyphenyl)butanoyl]-6,7,8,9-tetrahydro-5H-pyrimido[4,5-d]azepine] | ≥ 90
O=C(c1ccc2c(c1)CCO2)N1CCc2cnc(N3CCN(C4CCC4)CC3)nc2CC1 [Compound 375, 2-(4-cyclobutylpiperazin-1-yl)-7-(2,3-dihydro-1-benzofuran-5-ylcarbonyl)-6,7,8,9-tetrahydro-5H-pyrimido[4,5-d]azepine] | ≥ 90

The remaining lines, values ahead:

inhibition at 4 µM [%] | Compound
≥ 90 | Fc1ccc(CN2CCc3cnc(N4CCN(C5CCC5)CC4)nc3CC2)cc1 [Compound 232, 2-(4-cyclobutylpiperazin-1-yl)-7-(4-fluorobenzyl)-6,7,8,9-tetrahydro-5H-pyrimido[4,5-d]azepine]
≥ 90 | CCC(CC)CN1CCc2cnc(N3CCN(C4CCC4)CC3)nc2CC1 [Compound 253, 2-(4-cyclobutylpiperazin-1-yl)-7-(2-ethylbutyl)-6,7,8,9-tetrahydro-5H-pyrimido[4,5-d]azepine]
≥ 90 | O=C(Cc1cccc(C(F)(F)F)c1)N1CCc2cnc(N3CCN(C4CCC4)CC3)nc2CC1 [Compound 288, 2-(4-cyclobutylpiperazin-1-yl)-7-{[3-(trifluoromethyl)phenyl]acetyl}-6,7,8,9-tetrahydro-5H-pyrimido[4,5-d]azepine]
≥ 90 | Cc1ccccc1CC(=O)N1CCc2cnc(N3CCN(C4CCC4)CC3)nc2CC1 [Compound 305, 2-(4-cyclobutylpiperazin-1-yl)-7-[(2-methylphenyl)acetyl]-6,7,8,9-tetrahydro-5H-pyrimido[4,5-d]azepine]
≥ 90 | O=C(C1CCCC1)N1CCc2cnc(N3CCN(C4CCC4)CC3)nc2CC1 [Compound 217, 2-(4-cyclobutylpiperazin-1-yl)-7-(cyclopentylcarbonyl)-6,7,8,9-tetrahydro-5H-pyrimido[4,5-d]azepine]

Same assay, conditions: symbol ! in Ki; test compound 4 μM, 1 μM histamine; read-out: percent inhibition of agonist-induced GTP-gammaS binding to H3

Compound | inhibition at 4 µM [%]
COc1ccccc1C(=O)N1CCc2c(ncnc2N2CCN(C3CCC3)CC2)C1 [Compound 28, 4-(4-cyclobutylpiperazin-1-yl)-7-(2-methoxybenzoyl)-5,6,7,8-tetrahydropyrido[3,4-d]pyrimidine] | ≥ 90
CC(c1ccccc1Cl)N1CCc2c(ncnc2N2CCN(C3CCC3)CC2)C1 (stereo not shown) [Compound 135, 7-[1-(2-chlorophenyl)ethyl]-4-(4-cyclobutylpiperazin-1-yl)-5,6,7,8-tetrahydropyrido[3,4-d]pyrimidine] | ≥ 90
c1ccc(CN2CCc3c(ncnc3N3CCN(CCCN4CCCCC4)CC3)C2)cc1 [Compound 21, 7-benzyl-4-[4-(3-piperidin-1-ylpropyl)piperazin-1-yl]-5,6,7,8-tetrahydropyrido[3,4-d]pyrimidine] | ≥ 90
c1cncc(CN2CCc3nc(N4CCN(C5CCC5)CC4)ncc3C2)c1 [Compound 620, 2-(4-cyclobutylpiperazin-1-yl)-6-(pyridin-3-ylmethyl)-5,6,7,8-tetrahydropyrido[4,3-d]pyrimidine] | ≥ 90
Cc1cccc(CN2CCc3nc(N4CCN(C5CCC5)CC4)ncc3C2)n1 [Compound 619, 2-(4-cyclobutylpiperazin-1-yl)-6-[(6-methylpyridin-2-yl)methyl]-5,6,7,8-tetrahydropyrido[4,3-d]pyrimidine] | ≥ 90
O=C(C1CCCCCC1)N1CCc2c(ncnc2N2CCN(C3CCC3)CC2)C1 [Compound 56, 4-(4-cyclobutylpiperazin-1-yl)-7-(cycloheptylcarbonyl)-5,6,7,8-tetrahydropyrido[3,4-d]pyrimidine] | ≥ 90
Cc1c(F)cccc1CN1CCc2ncnc(N3CCN(C4CCC4)CC3)c2CC1 [Compound 179, 4-(4-cyclobutylpiperazin-1-yl)-7-(3-fluoro-2-methylbenzyl)-6,7,8,9-tetrahydro-5H-pyrimido[4,5-d]azepine] | ≥ 90
CC(c1cccc(F)c1)N1CCc2c(ncnc2N2CCN(C3CCC3)CC2)C1 (stereo not shown) [Compound 103, 4-(4-cyclobutylpiperazin-1-yl)-7-[1-(3-fluorophenyl)ethyl]-5,6,7,8-tetrahydropyrido[3,4-d]pyrimidine] | ≥ 90
CCCC(C)CN1CCc2c(ncnc2N2CCN(C3CCC3)CC2)C1 (stereo not shown) [Compound 90, 4-(4-cyclobutylpiperazin-1-yl)-7-(2-methylpentyl)-5,6,7,8-tetrahydropyrido[3,4-d]pyrimidine] | ≥ 90

Continued, values first:

inhibition at 4 µM [%] | Compound
≥ 90 | Cc1noc(C)c1C(=O)N1CCc2c(ncnc2N2CCN(C3CCC3)CC2)C1 [Compound 37, 4-(4-cyclobutylpiperazin-1-yl)-7-[(3,5-dimethylisoxazol-4-yl)carbonyl]-5,6,7,8-tetrahydropyrido[3,4-d]pyrimidine]
≥ 90 | c1ccc(CN2CCc3c(ncnc3N3CCN(CCCN4CCCC4)CC3)C2)cc1 [Compound 19, 7-benzyl-4-[4-(3-pyrrolidin-1-ylpropyl)piperazin-1-yl]-5,6,7,8-tetrahydropyrido[3,4-d]pyrimidine]
≥ 90 | CCCC(C)C(=O)N1CCc2c(ncnc2N2CCN(C3CCC3)CC2)C1 (stereo not shown) [Compound 61, 4-(4-cyclobutylpiperazin-1-yl)-7-(2-methylpentanoyl)-5,6,7,8-tetrahydropyrido[3,4-d]pyrimidine]

Source: patent US20080051387A1, “TETRAHYDROPYRIDO[3,4-D]PYRIMIDINES AND RELATED ANALOGUES” (priority 2006, published 2008)
